ChEMBL document CHEMBL3430912, “GSK Tres Cantos Anti-Kinetoplastid Screening (TCAKS) Data”

Experiments:
[1] = tested on: Trypanosoma brucei brucei; assay: GSK_TCAKS: pIC50 Trypanosoma brucei viability assay using fluorescence intensity. Assay plates (1536-well) were prepared by dispensing 25nL of compound solution per well using an Echo acoustic dispenser (Labcyte).; format: functional, organism-based; conditions: Lister 427, 2 h
[2] = target: Sterol 14-alpha demethylase (Trypanosoma cruzi (strain CL Brener), UniProt Q7Z1V1); assay: GSK_TCAKS: pIC50 CYP51 from Trypanosoma cruzi.; format: functional
NIH3T3 = assay: GSK_TCAKS: pIC50 NIH 3T3 cell line viability assay using luminiscence. Tissue culture surface treated assay plates (1536-well) were used. […] The 100% cells survival control was determined exposing the host-cells to a 0.5% DMSO concentration, whereas the 100% toxicity control was achieved by seeding the cells in presence of Amphotericin B at 50uM. Plates were incubated for four days at 37C, 5% CO2. The assay readout was developed by addition of 5uL of CellTiter-Glo Reagent following the manufacturer's instructions. Luminiscence was measured using a ViewLux.; format: functional, cell-based; conditions: Mus musculus, NIH3T3, 96 h
Leishmania donovani [3] = assay: GSK_TCAKS: pIC50 Leishmania donovani Imaging: THP-1 Host Macrophages. Assay plates (384-well) were prepared by adding 250nL of compound to each well. For single shot assay, the final compound concentration was 5 uM. […] Automated image analysis was performed with a script developed on Acapella High Content Imaging and Analysis Software (PerkinElmer). Output: THP-1 cell count were reported for each well.; format: functional, organism-based, Homo sapiens
Trypanosoma cruzi [4] = assay: (§1) GSK_TCAKS: pIC50 Trypanosoma cruzi Imaging: Amastigotes/Cell. […] Cells were then washed once with PBS before infection. T. cruzi trypomastigotes, collected at days 5 to 8 after infection from LLC-MK2 parasite infected cultures, were allowed to swim out for 4h at 37C from a centrifuged pellet (2,500 rpm/10 min/room temperature). Trypomastigotes were then collected and counted in a CASY Cell Counter. Trypomastigotes, in supplemented DMEM, were added to H9c2 cultures in a multiplicity of infection of 1 and incubated for 18 h. Cells were washed once with PBS before incubation of the infected H9c2 monolayer with trypsin (Life-Technologies) to detach cells from the flask. Cells were counted in a CASY Cell Counter using a 150 um capillary and their density set at 5 * 10^4 cells per mL in supplemented assay DMEM. Infected H9c2 were dispensed into 384-well poly-lysine coated assay plates at 50uL per well using a Multidrop Combi dispenser. After seeding them, the plates were incubated at 37C, 5% CO2 for 72h. Cultures were then fixed and stained by addition of 50 uL of a solution containing 8% formaldehyde and 4 uM DRAQ5 DNA dye (BioStatus, UK) per well. […] Five images were collected per well for reliable statistical analysis. Automated image analysis was performed with a script developed on Acapella High Content Imaging and Analysis Software (PerkinElmer). Output: number of amastigotes per cell as infection level measurement.; format: functional, organism-based, Rattus norvegicus; conditions: H9c2, 4 h
Leishmania donovani [5] = assay: GSK_TCAKS: pIC50 Leishmania donovani viability assay using fluorescence intensity. Assay plates (1536-well) were prepared by adding 30nL per well of compound. For single shot assay, the final compound concentration was 5uM. […] Briefly, eGFP LdBOB axenic amastigotes were harvested, fixed and counted in a CASY cell counter (Roche-Applied Science). A final concentration of 1.5 * 10^5 cells per well were prepared in amastigote media containing 500 U/mL penicillin/streptomycin (Invitrogen) and 6uL was dispensed to each experimental well using a Multidrop Combi dispenser (Thermo Scientific). 6uL of assay media was dispensed to control columns used as reference for 100% compound response. Following incubation for 72 h at 37C, 5% CO2, 2 uL of resazurin was added to each well at a final concentration of 0.5 mM in phosphate buffered saline (PBS) with IGEPAL (Sigma-Aldrich), 0.05% (v/v).; format: functional, organism-based
Trypanosoma cruzi [6] = assay: GSK_TCAKS: pIC50 Trypanosoma cruzi viability assay using beta-GAL activity. This assay was run at single shot at 5uM compound concentration per well. The biological reagents consisted of NIH-3T3 host cells and trypomastigotes parasitic cells; both cell types were set to a 3.3 * 10^5 cells/mL dilution in assay DMEM by means of a CASY cell counter device using a 60um capillary. 6 uL of the mixture were dispensed per well (about 1 * 10^3 host-cells and 1 * 10^3 parasites) with a Multidrop Combi dispenser. […] In all wells, the percentage of DMSO never exceeded 0.5%. Plates incubated for four days at 37C, 5% CO2. The substrate used for the assay fluorescence intensity (FLINT) readout was resorufin-beta-D-galactopiranoside (Sigma-Aldrich) at 5uM per well. It was diluted in PBS supplemented with the soft detergent Igepal (Fluka).; format: functional, organism-based, Mus musculus; conditions: Tulahuen, NIH3T3
[7] = GSK_TCAKS: pIC50 HepG2 human cell line viability assay using luminiscence. […] Seeding density was checked to ensure that new mono-layers were not more than 50% confluent at the time of harvesting. Cell suspension was added to 500 mL of the same medium at a final density of 1.2 * 10^5 cells/mL. This cell suspension was dispensed (25 uL, 3000 cells per well) into 384-well clear-bottom plates using a Multidrop Combi dispenser. Prior to addition of the cell suspension, the screening compounds (250 nL) were pre-dispensed into the plates with an Echo liquid handler. Plates were incubated for 48 h at 37C, 5% CO2. After incubation, plates equilibrated at room temperature for 30 min before proceeding to develop the luminescent signal. The signal developer, CellTiter-Glo Reagent, was allowed to equilibrate at room temperature for 30 min and added to the plates (25uL per well) using a Multidrop Combi dispenser. Plates were left for 10 min at room temperature for stabilization and then read using a ViewLux.; format: toxicity, cell-based
Trypanosoma cruzi [8] = assay: as §1, with “H2C9” for “Trypanosoma cruzi”, “H9c2 Host Cardiomyocytes.” for “Amastigotes/Cell.”, “Number” for “number”, “H9c2 Host Cardiomyocytes nuclei to determine drug-related cytotoxicity.” for “amastigotes per cell as infection level measurement.”; format: functional, organism-based, Rattus norvegicus; conditions: H9c2, 4 h
Leishmania donovani [9] = assay: GSK_TCAKS: pIC50 Leishmania donovani Imaging: Infected Macrophages. Assay plates (384-well) were prepared by adding 250nL of compound to each well. For single shot assay, the final compound concentration was 5 uM. […] Automated image analysis was performed with a script developed on Acapella High Content Imaging and Analysis Software (PerkinElmer). Output: Percent of infected macrophage cells were reported for each well.; format: functional, organism-based, Homo sapiens; conditions: THP-1
Trypanosoma cruzi [10] = assay: GSK_TCAKS: pIC50 Trypanosoma cruzi Imaging: Infected Cells. […] Cells were then washed once with PBS before infection. T. cruzi trypomastigotes, collected at days 5 to 8 after infection from LLC-MK2 parasite infected cultures, were allowed to swim out for 4h at 37C from a centrifuged pellet (2,500 rpm/10 min/room temperature). Trypomastigotes were then collected and counted in a CASY Cell Counter. Trypomastigotes, in supplemented DMEM, were added to H9c2 cultures in a multiplicity of infection of 1 and incubated for 18 h. Cells were washed once with PBS before incubation of the infected H9c2 monolayer with trypsin (Life-Technologies) to detach cells from the flask. Cells were counted in a CASY Cell Counter using a 150 um capillary and their density set at 5 * 10^4 cells per mL in supplemented assay DMEM. Infected H9c2 were dispensed into 384-well poly-lysine coated assay plates at 50uL per well using a Multidrop Combi dispenser. After seeding them, the plates were incubated at 37C, 5% CO2 for 72h. Cultures were then fixed and stained by addition of 50 uL of a solution containing 8% formaldehyde and 4 uM DRAQ5 DNA dye (BioStatus, UK) per well. […] Five images were collected per well for reliable statistical analysis. Automated image analysis was performed with a script developed on Acapella High Content Imaging and Analysis Software (PerkinElmer). Output: percentage of infected cells per well as a second infection marker.; format: functional, organism-based, Rattus norvegicus; conditions: H9c2, 4 h
Leishmania donovani [11] = assay: GSK_TCAKS: pIC50 Leishmania donovani Imaging: Amastigotes/Macrophages. Assay plates (384-well) were prepared by adding 250nL of compound to each well. For single shot assay, the final compound concentration was 5 uM. […] Automated image analysis was performed with a script developed on Acapella High Content Imaging and Analysis Software (PerkinElmer). Output: Average number of amastigotes per macrophage cell were reported for each well.; format: functional, organism-based, Homo sapiens; conditions: THP-1
[12] = tested on: Trypanosoma brucei brucei; assay: GSK_TCAKS: pIC50 Trypanosoma brucei viability assay using luminiscence. Assay plates (1536-well) were prepared. T. brucei cultures were harvested and counted in a CASY cell counter. A parasite suspension was prepared at a final concentration of 5 * 10^4 cells/mL in complete HMI9 medium and 6uL was dispensed to all wells containing compounds using a Multidrop Combi dispenser. 6uL of HMI9 media with 0.4% DMSO were dispensed to control columns. Plates were incubated for 24 h at 37C, 5% CO2 then tempered for 10 min at room temperature. ATP content was quantified by adding 4 uL of CellTiter-Glo Reagent (Promega) according to the manufacturer's instructions. Luminescence was measured using a ViewLux.; format: functional, organism-based; conditions: Lister 427, CASY

Sterol 14-alpha demethylase, sequence (Q7Z1V1 whole entry): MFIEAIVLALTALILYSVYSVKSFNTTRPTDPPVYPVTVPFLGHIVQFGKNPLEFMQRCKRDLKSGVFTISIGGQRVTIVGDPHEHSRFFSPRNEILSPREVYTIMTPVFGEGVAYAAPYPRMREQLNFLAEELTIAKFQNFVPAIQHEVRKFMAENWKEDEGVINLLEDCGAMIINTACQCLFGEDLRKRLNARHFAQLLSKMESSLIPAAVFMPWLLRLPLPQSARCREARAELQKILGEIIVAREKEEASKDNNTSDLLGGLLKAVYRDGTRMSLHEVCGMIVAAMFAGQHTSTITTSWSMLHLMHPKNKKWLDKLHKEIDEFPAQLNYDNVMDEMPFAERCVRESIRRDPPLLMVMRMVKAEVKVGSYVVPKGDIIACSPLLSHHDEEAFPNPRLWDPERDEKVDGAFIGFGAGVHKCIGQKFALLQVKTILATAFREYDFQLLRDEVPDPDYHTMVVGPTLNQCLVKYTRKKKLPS

| SMILES | IC50 [1] [µM] | IC50 [2] [µM] | IC50 (NIH3T3) [µM] | IC50 (Leishmania donovani [3]) [µM] | IC50 (Trypanosoma cruzi [4]) [µM] | IC50 (Leishmania donovani [5]) [µM] | IC50 (Trypanosoma cruzi [6]) [µM] | IC50 at 48 h [7] [µM] | IC50 (Trypanosoma cruzi [8]) [µM] | IC50 (Leishmania donovani [9]) [µM] | IC50 (Trypanosoma cruzi [10]) [µM] | IC50 (Leishmania donovani [11]) [µM] | IC50 [12] [µM] |
| --- | --- | --- | --- | --- | --- | --- | --- | --- | --- | --- | --- | --- | --- |
| CCOc1ccc(NC(=O)C=Cc2ccc(CC)o2)cc1 | 15.8 | > 100 | 31.6 | 20 | 15.8 | 20 | 2 | 79.4 | > 50.1 | 50.1 | 25.1 | 25.1 |  |
| COc1cc(NC(=O)Nc2cccc(CNC(=O)OC3CCCCC3)c2)ccc1-c1cnco1 | 0.251 | 25.1 | 10 | 10 | 31.6 | > 50.1 | 1 | 39.8 | 15.8 | > 50.1 | 25.1 | 20 |  |
| CC(C)Nc1nccc(-c2c(-c3ccc(F)cc3)ncn2C2CCOCC2)n1 | 5.01 | > 100 | > 50.1 | > 50.1 | 0.2 | 25.1 | 0.282 | > 100 | > 50.1 | 25.1 | 0.316 | 15.8 |  |
| CN(C)c1ccc(-c2cc3nccnc3c(OC[C@H]3CCCNC3)n2)cn1 | 2 |  | 15.8 | 20 | 1.58 | > 50.1 | 1.58 | 63.1 | 20 | 20 | > 50.1 | 25.1 |  |
| CC(Cn1ccnc1)NC(=O)C=Cc1ccc(Cl)cc1 (stereo unspecified) | > 39.8 | 0.158 | > 50.1 | > 50.1 | 0.631 | > 50.1 | 0.398 | > 100 | > 50.1 | > 50.1 | 1 | > 50.1 |  |
| c1cncc(CN(Cc2ccco2)Cc2c[nH]nc2-c2cccs2)c1 | 25.1 | 0.0794 | 31.6 | 20 | 0.0398 | 31.6 | 0.02 | > 100 | > 50.1 | > 50.1 | 0.0501 | 1.26 |  |
| CC(C)Oc1ccc(C(=O)Nc2ccc(N3CCOCC3)c(Cl)c2)cc1 | 12.6 | > 100 | 10 | > 50.1 | 1.26 | > 50.1 | 1.58 | 31.6 | > 50.1 | > 50.1 | 1.26 | 3.16 |  |
| CCCCNc1nccc(-c2c(-c3ccc(F)cc3)nn3c(N4CCOCC4)cccc23)n1 | 10 | > 100 | 10 | 12.6 | 1 | > 50.1 | 0.398 | > 100 | > 50.1 | 6.31 | 3.16 | > 50.1 |  |
| COc1ccc2nccc(NC(=O)C3(OC)CCN(CC(O)c4ccc5c(c4)OCCO5)CC3)c2n1 (stereo unspecified) | 0.398 | 1 |  | 25.1 | 0.126 | 10 | 0.251 | 39.8 | 15.8 | 20 | 0.316 | 6.31 | 0.501 |
| NCc1ccc2c(Cl)cc(Cl)c(O)c2n1 | 0.398 | 39.8 |  | 20 | 1.26 | 6.31 | 2.51 | 25.1 | 6.31 | 2 | 2 | 2 | 0.2 |
| Nc1ncnc2c1ncn2[C@@H]1O[C@H](CO)C[C@H]1O [CORDYCEPIN] | 0.0126 | > 100 | > 50.1 | > 50.1 | 1.26 | > 50.1 | 1.12 | > 100 |  | > 50.1 | 2 | > 50.1 | 0.01 |
